Laboratory results published in PubChem BioAssay AID1845203 (Molecular Pharmacology Branch, DTP, NCI, 2023).

Test system: G-401 tumor spheroids, viability % test/control
Experiment: Anticancer human tumor G-401 cell line growth inhibition;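 further: spheroids exposed to compound for 7 days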;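 on viability, T/C: 100% = DMSO vehicle-treated spheroids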
Conditions: spheroids with HUVEC and MSC; for IC50: curve of first compound; for viability, T/C: stronger effect = lower value
Method in brief: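 Complex tumor spheroids combined malignant cells with endothelial cells and mesenchymal stem cells. DNA-damaging drugs and DNA repair inhibitors were tested alone and in combination, at half-log dilutions down from clinical Cmax (top 10 microM if Cmax unknown), 0.25% DMSO final.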

Which results are given for `COc1ccc([C@@H](O)c2cc(-c3ncnc4cc(N5CCOCC5)ccc34)c(F)cc2Cl)nn1` + Cn1nnc2c(C(N)=O)ncn2c1=O?
IC50 (second compound 1 µM): 1350 nM; IC50 (second compound 3.16 µM): 932 nM; IC50 (second compound 10 µM): 1260 nM; IC50 (second compound 31.6 µM): 1130 nM; IC50 (second compound 100 µM): 1020 nM; viability, T/C (second compound 1 µM, first compound 0.0316 µM): 103%; viability, T/C (second compound 1 µM, first compound 0.1 µM): 95.7%; viability, T/C (second compound 1 µM, first compound 0.316 µM): 88.1%; viability, T/C (second compound 1 µM, first compound 1 µM): 60.9%; viability, T/C (second compound 1 µM, first compound 3.16 µM): 21.9%; viability, T/C (second compound 1 µM, first compound 10 µM): 9.93%; viability, T/C (second compound 3.16 µM, first compound 0.0316 µM): 96.6%; viability, T/C (second compound 3.16 µM, first compound 0.1 µM): 90.8%; viability, T/C (second compound 3.16 µM, first compound 0.316 µM): 91.4%; viability, T/C (second compound 3.16 µM, first compound 1 µM): 46.3%; viability, T/C (second compound 3.16 µM, first compound 3.16 µM): 20.6%; viability, T/C (second compound 3.16 µM, first compound 10 µM): 10.6%; viability, T/C (second compound 10 µM, first compound 0.0316 µM): 105%; viability, T/C (second compound 10 µM, first compound 0.1 µM): 96.1%; viability, T/C (second compound 10 µM, first compound 0.316 µM): 90%; viability, T/C (second compound 10 µM, first compound 1 µM): 57.8%; viability, T/C (second compound 10 µM, first compound 3.16 µM): 20.9%; viability, T/C (second compound 10 µM, first compound 10 µM): 10.8%; viability, T/C (second compound 31.6 µM, first compound 0.0316 µM): 90.9%; viability, T/C (second compound 31.6 µM, first compound 0.1 µM): 88.8%; viability, T/C (second compound 31.6 µM, first compound 0.316 µM): 85.1%; viability, T/C (second compound 31.6 µM, first compound 1 µM): 52%; viability, T/C (second compound 31.6 µM, first compound 3.16 µM): 22.5%; viability, T/C (second compound 31.6 µM, first compound 10 µM): 10.8%; viability, T/C (second compound 100 µM, first compound 0.0316 µM): 89.5%; viability, T/C (second compound 100 µM, first compound 0.1 µM): 87.4%; viability, T/C (second compound 100 µM, first compound 0.316 µM): 82.9%; viability, T/C (second compound 100 µM, first compound 1 µM): 49.5%; viability, T/C (second compound 100 µM, first compound 3.16 µM): 19.1%; viability, T/C (second compound 100 µM, first compound 10 µM): 8.51%

With `Cc1sc2c(c1C)C(c1ccc(Cl)cc1)=NC(CC(=O)Nc1ccc(O)cc1)c1nnc(C)n1-2` (stereo not given) + CC[C@@]1(O)C(=O)OCc2c1cc1n(c2=O)Cc2cc3c(CN(C)C)c(O)ccc3nc2-1 as the compound, how does the IC50 (second compound 0.003 µM) read?
The IC50 was 46.5 nM.

What about the IC50 (second compound 0.00949 µM) of the same compound?
The IC50 was < 9.49 nM.

And the IC50 (second compound 0.03 µM)?
The IC50 was < 9.49 nM.

And the IC50 (second compound 0.0949 µM)?
Its IC50 is < 9.49 nM.

And the IC50 (second compound 0.3 µM)?
Its IC50 is < 9.49 nM.

What about the viability, T/C (second compound 0.003 µM, first compound 0.00949 µM) of the same compound?
Its viability, T/C is 72%.

What about the viability, T/C (second compound 0.003 µM, first compound 0.03 µM) of the same compound?
Its viability, T/C is 57.4%.

What about the viability, T/C (second compound 0.003 µM, first compound 0.0949 µM) of the same compound?
Its viability, T/C is 38.5%.

What about the viability, T/C (second compound 0.003 µM, first compound 0.3 µM) of the same compound?
Its viability, T/C is 25.3%.

What about the viability, T/C (second compound 0.003 µM, first compound 0.949 µM) of the same compound?
The viability, T/C was 15.4%.

What about the viability, T/C (second compound 0.003 µM, first compound 3 µM) of the same compound?
Its viability, T/C is 6.8%.

And the viability, T/C (second compound 0.00949 µM, first compound 0.00949 µM)?
The viability, T/C was 38.3%.

And the viability, T/C (second compound 0.00949 µM, first compound 0.03 µM)?
The viability, T/C was 40.3%.

What about the viability, T/C (second compound 0.00949 µM, first compound 0.0949 µM) of the same compound?
Its viability, T/C is 22.1%.

What about the viability, T/C (second compound 0.00949 µM, first compound 0.3 µM) of the same compound?
Its viability, T/C is 17%.

What about the viability, T/C (second compound 0.00949 µM, first compound 0.949 µM) of the same compound?
Its viability, T/C is 6.36%.

What about the viability, T/C (second compound 0.00949 µM, first compound 3 µM) of the same compound?
The viability, T/C was 3.51%.

And the viability, T/C (second compound 0.03 µM, first compound 0.00949 µM)?
The viability, T/C was 13.9%.

And the viability, T/C (second compound 0.03 µM, first compound 0.03 µM)?
The viability, T/C was 11.6%.

What about the viability, T/C (second compound 0.03 µM, first compound 0.0949 µM) of the same compound?
Its viability, T/C is 9.1%.

What about the viability, T/C (second compound 0.03 µM, first compound 0.3 µM) of the same compound?
Its viability, T/C is 6.33%.

And the viability, T/C (second compound 0.03 µM, first compound 0.949 µM)?
Its viability, T/C is 3.18%.

What about the viability, T/C (second compound 0.03 µM, first compound 3 µM) of the same compound?
Its viability, T/C is 1.34%.

And the viability, T/C (second compound 0.0949 µM, first compound 0.00949 µM)?
The viability, T/C was 7.96%.

And the viability, T/C (second compound 0.0949 µM, first compound 0.03 µM)?
Its viability, T/C is 5.07%.

And the viability, T/C (second compound 0.0949 µM, first compound 0.0949 µM)?
Its viability, T/C is 4.63%.

What about the viability, T/C (second compound 0.0949 µM, first compound 0.3 µM) of the same compound?
Its viability, T/C is 2.93%.

What about the viability, T/C (second compound 0.0949 µM, first compound 0.949 µM) of the same compound?
The viability, T/C was 1.21%.

And the viability, T/C (second compound 0.0949 µM, first compound 3 µM)?
Its viability, T/C is 0.82%.

What about the viability, T/C (second compound 0.3 µM, first compound 0.00949 µM) of the same compound?
The viability, T/C was 4.4%.

What about the viability, T/C (second compound 0.3 µM, first compound 0.03 µM) of the same compound?
The viability, T/C was 3.79%.

And the viability, T/C (second compound 0.3 µM, first compound 0.0949 µM)?
Its viability, T/C is 3.23%.

And the viability, T/C (second compound 0.3 µM, first compound 0.3 µM)?
Its viability, T/C is 1.9%.

What about the viability, T/C (second compound 0.3 µM, first compound 0.949 µM) of the same compound?
Its viability, T/C is 1.03%.

What about the viability, T/C (second compound 0.3 µM, first compound 3 µM) of the same compound?
Its viability, T/C is 0.5%.
